SMILES strings stand for the structures.

recombinant human ASK1 protein, sequence (Q99683 whole entry): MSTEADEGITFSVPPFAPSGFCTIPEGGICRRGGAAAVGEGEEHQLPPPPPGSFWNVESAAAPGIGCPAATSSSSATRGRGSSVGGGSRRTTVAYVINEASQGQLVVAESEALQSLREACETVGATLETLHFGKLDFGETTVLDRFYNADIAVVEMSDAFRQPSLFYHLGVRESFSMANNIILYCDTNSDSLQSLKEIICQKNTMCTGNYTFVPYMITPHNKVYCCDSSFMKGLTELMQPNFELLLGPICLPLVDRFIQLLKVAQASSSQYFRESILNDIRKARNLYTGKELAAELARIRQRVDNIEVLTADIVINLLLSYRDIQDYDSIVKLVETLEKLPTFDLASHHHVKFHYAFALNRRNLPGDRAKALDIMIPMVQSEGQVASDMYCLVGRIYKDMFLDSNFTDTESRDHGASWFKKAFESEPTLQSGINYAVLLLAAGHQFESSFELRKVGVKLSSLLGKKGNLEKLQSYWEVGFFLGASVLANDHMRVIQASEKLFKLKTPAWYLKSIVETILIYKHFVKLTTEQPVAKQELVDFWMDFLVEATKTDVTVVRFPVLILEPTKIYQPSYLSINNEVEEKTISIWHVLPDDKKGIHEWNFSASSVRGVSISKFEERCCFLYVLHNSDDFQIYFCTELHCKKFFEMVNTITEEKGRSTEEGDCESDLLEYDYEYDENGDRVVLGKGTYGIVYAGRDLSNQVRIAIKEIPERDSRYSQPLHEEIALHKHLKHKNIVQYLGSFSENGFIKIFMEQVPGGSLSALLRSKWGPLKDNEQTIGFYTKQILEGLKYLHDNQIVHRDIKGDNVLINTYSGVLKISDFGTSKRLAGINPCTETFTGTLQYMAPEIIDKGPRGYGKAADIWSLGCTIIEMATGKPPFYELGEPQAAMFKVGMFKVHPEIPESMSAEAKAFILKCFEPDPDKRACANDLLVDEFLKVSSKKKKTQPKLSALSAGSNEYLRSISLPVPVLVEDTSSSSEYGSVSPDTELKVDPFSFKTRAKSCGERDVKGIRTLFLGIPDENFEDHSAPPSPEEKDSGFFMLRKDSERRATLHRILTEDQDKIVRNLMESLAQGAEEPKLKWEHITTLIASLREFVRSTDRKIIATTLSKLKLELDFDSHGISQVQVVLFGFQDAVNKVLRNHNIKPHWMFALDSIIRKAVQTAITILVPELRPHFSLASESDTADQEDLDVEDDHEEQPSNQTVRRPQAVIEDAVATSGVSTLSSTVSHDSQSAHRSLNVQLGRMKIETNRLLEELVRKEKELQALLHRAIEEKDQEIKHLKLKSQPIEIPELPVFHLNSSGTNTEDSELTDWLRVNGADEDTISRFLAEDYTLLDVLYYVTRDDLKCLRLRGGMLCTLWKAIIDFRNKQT

This assay concerns the target recombinant human ASK1 protein (Homo sapiens (Human), UniProt Q99683). The assay can be described thus: ASK1 kinase activity inhibition assay (radiometric 33P incorporation into MBP). As to conditions: Table 3; 20 μM MBP, 10 μM 33P-ATP. It counts as biochemical. The protocol: ASK1 Kinase Activity Inhibition Assay
Inhibition of ASK1 kinase activity was determined radiometrically using 33P substrate incorporation (Reaction Biology Corp., Malvern, Pa.). Briefly, recombinant human ASK1 protein, 20 μM substrate (myelin basic protein (MBP)), and compound (diluted from DMSO stock to give 1% final DMSO) were incubated in Base Reaction buffer (20 mM Hepes (pH 7.5), 10 mM MgCl2, 1 mM EGTA, 0.02% Brij35, 0.02 mg/mL BSA, 0.1 mM Na3VO4, 2 mM DTT, 1% DMSO) at room temperature for 20 minutes. The reaction was initiated by addition of 10 μM 33P-ATP (specific activity […]). The reaction was then allowed to proceed for 2 hours at room temperature. Upon reaction termination, the mixture was spotted on P81 exchange paper and kinase activity by incorporation of 33P into MBP substrate was detected by filter-binding method.
For orientation: IC50 means the concentration that gives 50% inhibition. Turning to `CC(C)n1cnnc1-c1cccc(N2Cc3ccc(-c4c(F)cccc4C(=O)O)cc3C2=O)n1` [Compound 70, 3-Fluoro-2-(2-(6-(4-isopropyl-4H-1,2,4-triazol-3-yl)pyridin-2-yl)-3-oxoisoindolin-5-yl)benzoic Acid], the IC50 worked out at 160 nM.

In the case of `O=C(O)c1ccc(-c2ccc3c(c2)C(=O)N(c2cccc(-c4nncn4C4CC4)n2)C3)cc1` [Compound 71, 4-(2-(6-(4-Cyclopropyl-4H-1,2,4-triazol-3-yl)pyridin-2-yl)-3-oxoisoindolin-5-yl)benzoic Acid], the IC50 worked out at 4.3 nM.

As to `CC(C)n1cnnc1-c1cccc(N2Cc3ccc(-c4ccc(C(=O)O)c(Cl)c4)cc3C2=O)n1` [Compound 72, 2-Chloro-4-(2-(6-(4-isopropyl-4H-1,2,4-triazol-3-yl)pyridin-2-yl)-3-oxoisoindolin-5-yl)benzoic Acid], the IC50 is 4.7 nM.

As to `Cc1cc(-c2ccc3c(c2)C(=O)N(c2cccc(-c4nncn4C(C)C)n2)C3)ccc1C(=O)O` [Compound 73, 4-(2-(6-(4-isopropyl-4H-1,2,4-triazol-3-yl)pyridin-2-yl)-3-oxoisoindolin-5-yl)-2-methyl], the IC50 worked out at 14.3 nM.

`Cc1cc(C(=O)O)ccc1-c1ccc2c(c1)C(=O)N(c1cccc(-c3nncn3C(C)C)n1)C2` [Compound 74, 4-(2-(6-(4-Isopropyl-4H-1,2,4-triazol-3-yl)pyridin-2-yl)-3-oxoisoindolin-5-yl)-3-methylbenzoic Acid]: the IC50 is 5.7 nM.

On to `COc1cc(-c2ccc3c(c2)C(=O)N(c2cccc(-c4nncn4C(C)C)n2)C3)ccc1C(=O)O` [Compound 75, 4-(2-(6-(4-Isopropyl-4H-1,2,4-triazol-3-yl)pyridin-2-yl)-3-oxoisoindolin-5-yl)-2-methoxybenzoic Acid], for which the IC50 was determined as 5.6 nM.

Regarding `COc1cc(C(=O)O)ccc1-c1ccc2c(c1)C(=O)N(c1cccc(-c3nncn3C(C)C)n1)C2` [Compound 76, 4-(2-(6-(4-Isopropyl-4H-1,2,4-triazol-3-yl)pyridin-2-yl)-3-oxoisoindolin-5-yl)-3-methoxybenzoic Acid], the IC50 was 8.2 nM.

On to `CC(C)n1cnnc1-c1cccc(N2Cc3ccc(-c4ccc(C(=O)O)c(S(C)(=O)=O)c4)cc3C2=O)n1` [Compound 77, 4-(2-(6-(4-Isopropyl-4H-1,2,4-triazol-3-yl)pyridin-2-yl)-3-oxoisoindolin-5-yl)-2-(methylsulfonyl)benzoic Acid], for which the IC50 was found to be 2.8 nM.

In the case of `CC(C)n1cnnc1-c1cccc(N2Cc3ccc(-c4cc(F)c(C(=O)O)c(F)c4)cc3C2=O)n1` [Compound 78, 2,6-Difluoro-4-(2-(6-(4-isopropyl-4H-1,2,4-triazol-3-yl)pyridin-2-yl)-3-oxoisoindolin-5-yl) Benzoic Acid], the IC50 was 4.6 nM.

As for `Cc1cc(F)c(C(=O)O)cc1-c1ccc2c(c1)C(=O)N(c1cccc(-c3nncn3C(C)C)n1)C2` [Compound 79, 2-Fluoro-5-(2-(6-(4-isopropyl-4H-1,2,4-triazol-3-yl)pyridin-2-yl)-3-oxoisoindolin-5-yl)-4-methylbenzoic Acid], the IC50 amounted to 4.6 nM.

Turning to `COc1c(C)cc(-c2ccc3c(c2)C(=O)N(c2cccc(-c4nncn4C(C)C)n2)C3)cc1C(=O)O` [Compound 80, 5-(2-(6-(4-Isopropyl-4H-1,2,4-triazol-3-yl)pyridin-2-yl)-3-oxoisoindolin-5-yl)-2-methoxy-3-methylbenzoic Acid], the IC50 was determined as 5.2 nM.

Consider `COC(=O)c1ccc(-c2ccc3c(c2)C(=O)N(c2cccc(-c4nncn4C(C)C)n2)C3)cc1` [Compound 81, Methyl 4-(2-(6-(4-isopropyl-4H-1,2,4-triazol-3-yl)pyridin-2-yl)-3-oxoisoindolin-5-yl)benzoate], for which the IC50 was 14.9 nM.

On to `CC(C)n1cnnc1-c1cccc(N2Cc3ccc(-c4ccc5c(c4)COC5=O)cc3C2=O)n1` [Compound 82, 2-(6-(4-Isopropyl-4H-1,2,4-triazol-3-yl)pyridin-2-yl)-6-(1-oxo-1,3-dihydroisobenzofuran-5-yl)isoindolin-1-one], for which the IC50 was 3.2 nM.

Take `CC(C)n1cnnc1-c1cccc(N2Cc3ccc(-c4ccc(C(=O)O)c(CO)c4)cc3C2=O)n1` [Compound 83, 2-(Hydroxymethyl)-4-(2-(6-(4-isopropyl-4H-1,2,4-triazol-3-yl)pyridin-2-yl)-3-oxoisoindolin-5-yl)benzoic Acid]: the IC50 worked out at 6.2 nM.

Turning to `CC(C)n1cnnc1-c1cccc(N2Cc3ccc(-c4ccc(CC(=O)O)cc4)cc3C2=O)n1` [Compound 84, 2-(4-(2-(6-(4-Isopropy-4H-1,2,4-triazol-3-yl)pyridin-2-yl)-3-oxoisoindolin-5-yl)phenyl)acetic Acid], the IC50 was found to be 4.3 nM.

With `CC(C(=O)O)c1ccc(-c2ccc3c(c2)C(=O)N(c2cccc(-c4nncn4C(C)C)n2)C3)cc1` (stereo not shown) [Compound 85, 2-(4-(2-(6-(4-Isopropyl-4H-1,2,4-triazol-3-yl)pyridin-2-yl)-3-oxoisoindolin-5-yl)phenyl)propanoic Acid], the IC50 was determined as 3.6 nM.

In the case of `CC(C)n1cnnc1-c1cccc(N2Cc3ccc(-c4ccc(C5(C(=O)O)CC5)cc4)cc3C2=O)n1` [Compound 86, 1-(4-(2-(6-(4-Isopropyl-4H-1,2,4-triazol-3-yl)pyridin-2-yl)-3-oxoisoindolin-5-yl)phenyl)cyclopropane-1-carboxylic Acid], the IC50 came to 1.83 nM.

With `O=C1c2cc(-c3ccc(C4(C(=O)O)CC4)cc3)ccc2CN1c1cccc(-c2nncn2C2CC2)n1` [Compound 87, 1-(4-(2-(6-(4-Cyclopropyl-4H-1,2,4-triazol-3-yl)pyridin-2-yl)-3-oxoisoindolin-5-yl)phenyl)cyclopropane-1-carboxylic Acid], the IC50 came out at 2.5 nM.

With `COC(=O)C(C)(C)c1ccc(-c2ccc3c(c2)C(=O)N(c2cccc(-c4nncn4C(C)C)n2)C3)cc1` [Compound 88, Methyl 2-(4-(2-(6-(4-isopropyl-4H-1,2,4-triazol-3-yl)pyridin-2-yl)-3-oxoisoindolin-5-yl)phenyl)-2-methylpropanoate], the IC50 is 4.9 nM.

Take `CC(C)n1cnnc1-c1cccc(N2Cc3ccc(-c4ccc(OCC(=O)O)cc4)cc3C2=O)n1` [Compound 89, 2-(4-(2-(6-(4-Isopropyl-4H-1,2,4-triazol-3-yl)pyridin-2-yl)-3-oxoisoindolin-5-yl)phenoxy) acetic Acid]: the IC50 was 4.9 nM.

On to `CC(C)n1cnnc1-c1cccc(N2Cc3ccc(-c4ccc(CCC(=O)O)cc4)cc3C2=O)n1` [Compound 90, 3-(4-(2-(6-(4-Isopropyl-4H-1,2,4-triazol-3-yl)pyridin-2-yl)-3-oxoisoindolin-5-yl)phenyl)propanoic Acid], for which the IC50 was 4.4 nM.

Consider `CC(C)n1cnnc1-c1cccc(N2Cc3ccc(-c4ccc(-c5nnn[nH]5)cc4)cc3C2=O)n1` [Compound 91, 6-(4-(2H-Tetrazol-5-yl)phenyl)-2-(6-(4-isopropyl-4H-1,2,4-triazol-3-yl)pyridin-2-yl)isoindolin-1-one], for which the IC50 was found to be 7.9 nM.

In the case of `O=C1c2cc(-c3ccc(-c4nnn[nH]4)cc3)ccc2CN1c1cccc(-c2nncn2C2CC2)n1` [Compound 92, 6-(4-(2H-Tetrazol-5-yl)phenyl)-2-(6-(4-cyclopropyl-4H-1,2,4-triazol-3-yl)pyridin-2-yl)isoindolin-1-one], the IC50 stood at 5.52 nM.

In the case of `O=C(O)c1ccc(F)c(-c2ccc3c(c2)C(=O)N(c2cccc(-c4nncn4C4CC4)n2)C3)c1` [Compound 93, 3-(2-(6-(4-Cyclopropyl-4H-1,2,4-triazol-3-yl)pyridin-2-yl)-3-oxoisoindolin-5-yl)-4-fluorobenzoic Acid], the IC50 was found to be 12.4 nM.

Consider `Cc1c(C(=O)O)cccc1-c1ccc2c(c1)C(=O)N(c1cccc(-c3nncn3C(C)C)n1)C2` [Compound 94, 3-(2-(6-(4-Isopropyl-4H-1,2,4-triazol-3-yl)pyridin-2-yl)-3-oxoisoindolin-5-yl)-2-methylbenzoic Acid], for which the IC50 worked out at 6.9 nM.

Take `CC(C)n1cnnc1-c1cccc(N2Cc3ccc(-c4cccc(C(=O)O)c4O)cc3C2=O)n1` [Compound 95, 2-Hydroxy-3-(2-(6-(4-isopropyl-4H-1,2,4-triazol-3-yl)pyridin-2-yl)-3-oxoisoindolin-5-yl) benzoic Acid]: the IC50 is 3.4 nM.

On to `COc1ccc(-c2ccc3c(c2)C(=O)N(c2cccc(-c4nncn4C(C)C)n2)C3)cc1C(=O)O` [Compound 96, 5-(2-(6-(4-Isopropyl-4H-1,2,4-triazol-3-yl)pyridin-2-yl)-3-oxoisoindolin-5-yl)-2-methoxybenzoic Acid], for which the IC50 came to 4.9 nM.

As for `CC(C)n1cnnc1-c1cccc(N2Cc3ccc(-c4cc(F)cc(C(=O)O)c4F)cc3C2=O)n1` [Compound 97, 2,5-Difluoro-3-(2-(6-(4-isopropyl-4H-1,2,4-triazol-3-yl)pyridin-2-yl)-3-oxoisoindolin-5-yl) Benzoic Acid], the IC50 was 4.7 nM.

For `Cc1c(F)cc(C(=O)O)cc1-c1ccc2c(c1)C(=O)N(c1cccc(-c3nncn3C(C)C)n1)C2` [Compound 98, 3-Fluoro-5-(2-(6-(4-isopropyl-4H-1,2,4-triazol-3-yl)pyridin-2-yl)-3-oxoisoindolin-5-yl)-4-methylbenzoic Acid], the IC50 was 4.9 nM.

Take `COC(=O)c1cccc(-c2ccc3c(c2)C(=O)N(c2cccc(-c4nncn4C(C)C)n2)C3)c1` [Compound 99, Methyl 3-(2-(6-(4-isopropyl-4H-1,2,4-triazol-3-yl)pyridin-2-yl)-3-oxoisoindolin-5-yl)benzoate]: the IC50 was determined as 6.37 nM.

On to `COC(=O)c1ccc(F)c(-c2ccc3c(c2)C(=O)N(c2cccc(-c4nncn4C(C)C)n2)C3)c1` [Compound 100, Methyl 4-fluoro-3-(2-(6-(4-isopropyl-4H-1,2,4-triazol-3-yl)pyridin-2-yl)-3-oxoisoindolin-5-yl)benzoate], for which the IC50 came out at 6.57 nM.

For the origin of these results see patent publication US10654833B2, “ASK1 isoindolin-1-one inhibitors and methods of use thereof” (Hepatikos Therapeutics, LLC, priority 2018, dated 2020).
